Entries after “also recorded” stand apart in the source; their conditions may differ.
Experiments:
[1] = biological target: T1, human PPARγ LBD (residues 206-477) (Homo sapiens, UniProt P37231); test: Stargazer thermostabilization assay; format: binding; conditions: 0.2 mg/ml PPARγ LBD, heated to 80° C.
T1 construct: human PPARγ LBD (residues 206-477), expressed in pRSET; His tag (implied by Ni-NTA purification and the pRSET vector); made in house; host or cells: E. coli BL21 codon plus (pRSET)
T1 sequence (P37231 206-477 isoform P37231-2): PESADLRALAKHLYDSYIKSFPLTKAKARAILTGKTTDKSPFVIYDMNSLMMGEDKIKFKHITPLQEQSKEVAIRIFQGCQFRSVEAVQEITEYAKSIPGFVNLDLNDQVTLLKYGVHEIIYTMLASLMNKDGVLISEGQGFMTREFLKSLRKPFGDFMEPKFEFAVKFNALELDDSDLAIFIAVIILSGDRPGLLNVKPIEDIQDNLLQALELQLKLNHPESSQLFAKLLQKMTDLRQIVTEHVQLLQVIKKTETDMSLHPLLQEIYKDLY

[2] = biological target: T2, PPARγ LBD (Homo sapiens, UniProt P37231); test: In vitro co-purification with His-tagged PPARγ LBD, MS; format: binding; conditions: incubated with 10 μM idebenone
T2 construct: His-tagged PPARα, δ and γ LBDs were expressed in bacteria, Ni-NTA purified; His; made in house; host or cells: bacteria (E. coli)
T2 sequence (P37231 238-503 limits assumed): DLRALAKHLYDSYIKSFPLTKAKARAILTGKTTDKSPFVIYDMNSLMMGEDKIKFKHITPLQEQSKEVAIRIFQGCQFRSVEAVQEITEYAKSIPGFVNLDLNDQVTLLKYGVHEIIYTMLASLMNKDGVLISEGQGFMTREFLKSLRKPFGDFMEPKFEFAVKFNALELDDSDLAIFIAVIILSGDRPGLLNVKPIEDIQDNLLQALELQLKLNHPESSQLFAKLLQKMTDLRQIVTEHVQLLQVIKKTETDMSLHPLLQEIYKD
Experimental: To see if idebenone can bind to directly to other PPAR LBDs, His-tagged PPARα, δ and γ LBDs were expressed in bacteria, Ni-NTA purified and incubated with 10 μM idebenone. After several washes in a 10 kDa cut off Amicon centrifuge filter (Millipore), lipids were extracted and analyzed by MS.

[3] = biological target: T3, affinity-tagged PPARγ expressed in zebrafish (Homo sapiens, UniProt P37231); test: Affinity purification of PPARγ from LT fish and LC-MRM of bound drugs; format: binding; conditions: 1 μM rosiglitazone or 4 μM idebenone; purification in 1M NaCl
T3 construct: pLT PPARα (aa 178-468) and pLT PPAR γ (aa 188-477) lines; expressed in transfected cells; host or cells: transgenic zebrafish embryos (heat-induced ligand-trap line)
T3 sequence (P37231 188-477 isoform P37231-2): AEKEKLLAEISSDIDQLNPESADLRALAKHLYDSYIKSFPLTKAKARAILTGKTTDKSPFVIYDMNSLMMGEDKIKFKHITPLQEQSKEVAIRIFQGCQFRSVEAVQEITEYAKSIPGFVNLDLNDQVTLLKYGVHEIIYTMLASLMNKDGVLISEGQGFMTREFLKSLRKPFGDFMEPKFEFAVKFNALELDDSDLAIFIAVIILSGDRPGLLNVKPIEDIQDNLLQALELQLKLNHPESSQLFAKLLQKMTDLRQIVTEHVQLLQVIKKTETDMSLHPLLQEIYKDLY
Experimental: Following purification, bound small molecules were extracted using 2:1 chloroform/methanol and subjected to LC-MRM (liquid chromatogaphy—multiple reaction monitoring) mass spectrometry to identify co-purifying small molecules.
1 dpf zebrafish embryos were heat induced for 1 hr in pre-heated embryo water 37° C. (+/− drugs). […] Purification steps were performed at 4° C. Frozen embryos were homogenized in lysis buffer (50 mM Hepes ph7.5, 1M NaCl, 0.1% Triton X-100, 1 mM DTT, 1 mM EDTA, 1 ppm BHT, Complete protease inhibitor cocktail tablet (Roche, 1 tablet/50 ml buffer)) at a ratio of 4 ml lysis buffer/gram embryos. After 20 min incubation on ice, the lysate was centrifuged at 14000×g for 15 mins. […] The beads were then transferred to a 2 ml-gravity disposable column and washed 3 times with 6 column of Last Wash Buffer (800 mM ammonium acetate pH7.5, 1 ppm BHT). The beads were then transferred to a glass vial and the samples prepared for mass spectrometry.
The chloroform phase was collected and dried under a stream of nitrogen gas. The dried residue was reconstituted in 10% acetonitrile prior to LC-MRM. […]
The purified PPARγ or control purifications were then extracted with 2:1 chlorofonailmethanol, and the solvent phase analyzed by mass spectrometry.

[4] = biological target: T4, hPPARδ/β (Homo sapiens, UniProt Q03181); test: HEK293 cell culture luciferase reporter assay, hPPARδ/β; conditions: HEK293
T4 sequence (Q03181 143-441): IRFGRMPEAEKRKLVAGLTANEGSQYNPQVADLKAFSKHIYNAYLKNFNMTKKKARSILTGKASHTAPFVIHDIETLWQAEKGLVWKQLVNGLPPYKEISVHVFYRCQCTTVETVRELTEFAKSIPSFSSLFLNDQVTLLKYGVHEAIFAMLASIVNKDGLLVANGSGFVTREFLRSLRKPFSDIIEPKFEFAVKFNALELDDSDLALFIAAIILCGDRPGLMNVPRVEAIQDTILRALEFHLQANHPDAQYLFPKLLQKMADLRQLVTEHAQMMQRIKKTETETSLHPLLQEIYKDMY

[5] = biological target: T5, PPARα (Homo sapiens, UniProt Q07869); test: PPARα ligand trap zebrafish GFP reporter assay; format: in vivo; set-up: pLT PPARα (aa 178-468) and pLT PPAR γ (aa 188-477) lines; expressed in transfected cells; host or cells: transgenic zebrafish embryos (ligand-trap line); conditions: transgenic embryos, 48 hpf
T5 sequence (Q07869 178-468): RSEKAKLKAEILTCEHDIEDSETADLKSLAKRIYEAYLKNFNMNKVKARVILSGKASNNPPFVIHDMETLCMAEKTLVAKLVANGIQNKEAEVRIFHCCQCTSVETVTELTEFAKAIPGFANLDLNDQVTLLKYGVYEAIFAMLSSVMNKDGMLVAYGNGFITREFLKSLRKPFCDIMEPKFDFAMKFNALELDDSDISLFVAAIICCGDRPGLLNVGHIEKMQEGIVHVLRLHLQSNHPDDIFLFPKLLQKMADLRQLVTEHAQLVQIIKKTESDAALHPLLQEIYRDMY
Experimental: Zebrafish were maintained at 28.5° C. on a 14/10 hour light/dark cycle and staged according to hours (h) or days (d) postfertilization. To generate pLT PPARα (aa 178-468) and pLT PPAR γ (aa 188-477) lines, plasmids were pre-digested with I-SceI (0.8 μg DNA, 1 μl I-SceI (New England Biolabs) 2 μl 10×I-SceI buffer, 1 μl BSA) for 20 min at 37° C. Digested DNA was adjusted with 0.1% phenol red. 4.6 nl of DNA solution was injected into the blastomeres of early one-cell stage embryos.
F0 fish were crossed with WT fish to identify germ-line transformed animals, as determined by agonist treatments and GFP expression. F1 progeny showing strong and consistent GFP responses were selected for F2 homozygote production. To avoid reporter GFP silencing of stable transgenic LT lines, homozygous fish showing strong and consistent GFP responses were selected for continued propagation of next generations.
PPARγ ligand trap zebrafish screens were performed under optimized conditions in 96-well format using the ImageXpress Velos Laser Scanning Cytometer. 1 or 2 dpf embryos were heat induced (28→37° C.) for 30 minutes, de-chorionated and then arrayed in 96-well plates (5 per well). […] Embryos were incubated at 28° C. for 14 h, anesthetized with Tricaine (Sigma, Cat. # A-5040) and then analyzed for GFP fluorescence using the ImageXpress Velos Laser Scanning Cytometer.

COC1=C(OC)C(=O)C(CCCCCCCCCCO)=C(C)C1=O [Idebenone, 2-(10-hydroxydecyl)-5,6-dimethoxy-3-methyl-2,5-cyclohexadiene-1,4-dione]
Shift of thermal denaturation transition temperature [1]: 5.5 °C
Binding to PPARγ LBD (co-purification, MS) [2]: strong binding
Co-purification with PPARγ from LT fish (LC-MRM) [3]: yielded idebenone in the affinity purification eluate; also recorded: co-purify with affinity-tagged PPARγ
Response of PPARδ/β in cultured cells [4]: no response
GFP response of PPARα LT line [5]: robust response; also recorded: dual agonists for PPARα and PPARγ
